US20250214991A1 (Oncopia Therapeutics, Inc. d/b/a/ SK Life Science Labs, priority 2022, published 2025)

Tests used:
CRBN/DDB1 = CRBN/DDB1 (Homo sapiens (Human), UniProt Q96SW2); experiment: IC50 measurements for binding to CRBN/DDB1 (HTRF); conditions: His tagged CRBN+DDB, Cy5-labeled Thalidomide probe, one hour
Protocol: In vitro Assay: IC50 Measurements for binding to CRBN/DDB1 (Table E1)
The binding potency was determined using HTRF assay technology (Perkin Elmer). Compounds were serially diluted in DMSO and 0.2 μL volume was transferred to white 384-well plate. The reaction was conducted in total volume of 20 μL with addition of 2 nM His tagged CRBN+DDB−DLS7+CXU4 (Wuxi, catalogue #RP210521GA) to compounds followed by addition of 60 nM Fluorescent probe Cy5-labeled Thalidomide (Tenova Pharma, catalogue #T52461), and 0.4 nM of MAb Anti-6HIS Tb cryptate Gold (Cisbio, catalogue #61HI2TLA in the assay buffer (50 mM HEPES pH 7.5, 1 mM TCEP, 0.01% Brij-35, 50 mM NaCl, and 0.1% BSA). After one hour incubation at room temperature, the HTRF signals were read on Envision reader (Perkin Elemer). Data was analyzed using XLfit using four parameters dose response curve to determine IC50s. A: IC50<0.1 μM; B: 0.1 μM<IC50<[…]; C: 0.5 μM<IC50<1 μM; D: 1 μM<IC50<5 μM; E: 5 μM<IC50<10 μM

IKZF2 = IKZF2 (Homo sapiens (Human), UniProt Q96SW2+Q9UKS7); experiment: In vitro IKZF2 HiBit Assay (HEK293T Flp-in-HiBiT cells); format: cell-based; conditions: HEK293T Flp-in-HiBiT cells, 6 hrs incubation; for DC50: read-out: IKZF2 HiBit DC50; for Dmax: HEK-293T, read-out: IKZF2 HiBit Dmax (%)
Protocol: In Vitro IKZF2 HiBit Assay
The HiBiT protein tagging system was applied to modified HEK293T Flp-in-HiBiT cells (polyclone) via a CRISPR/Cas9-mediated insertion of the HiBiT peptide tag (Promega™) to the N-terminus of the IKZF2 gene locus (Neon™ transfection system). Test and reference compounds are diluted from 1 mM at 3 folds for 11 doses. 25 nL of diluted compound is transfered to assay plates (Corning3570) using ECHO550, the final DMSO concentration @ 0.1%. The cells are seeded in 3000/25 μL/well to compound plates. It is then incubated for 6 hrs in TC incubator. The amount of Nano-Glo® HiBiT lytic reagent needed to perform the desired experiments is calculated. The Nano-Glo® HiBiT lytic reagent is brought to room temperature. The LgBiT protein is diluted to 1:100 and the Nano-Glo® HiBiT lytic substrate is diluted to 1:50 into an appropriate volume of room temperature Nano-Glo® HiBiT lytic buffer. 15 μL of the detection reagent (or without LgBiT) is dispensed to corresponding well according to the layout. The plate is then shaked for 10 mins at room temperature. After briefly centrifuge, the plate is read on Envision. At the indicated timepoints, the Nano-Glo® HiBiT lytic detection system (Promega™) was utilized for detecting bioluminescence of the HiBiT tag in treated cells: abundance of the tag is proportionate to the level of luminescence. Following normalization to DMSO, dose-response curves were plotted (GraphPad Prism) to determine the concentration points at which 50% of HiBiT-Helios degradation was achieved by each compound. The extent of degradation (range of luminescence) from the highest to lowest concentration points was calculated to determine the Dmax.
(§1) DC50, A: <1 nM; B: 1-10 nM; C: 10-100 nM; D: 100-1000 nM; E: 1000-10000 nM; F: >10,000 nM. Dmax, A: >80%; B: 60-80%; C: 40-60%; D: 20-40%; E: <20%.

IKZF1 = IKZF1 (Homo sapiens (Human), UniProt Q13422+Q96SW2); experiment: In vitro IKZF1 HiBit Assay (HEK293T Flp-in-HiBiT-IKZF1 stable cell line); format: cell-based; conditions: HEK293T Flp-in-HiBiT-IKZF1 stable cell line, 6 hrs incubation; for DC50: read-out: IKZF1 HiBit DC50; for Dmax: HEK-293T, read-out: IKZF1 HiBit Dmax (%)
Protocol: In Vitro IKZF1 HiBit Assay
The HiBiT protein tagging system was applied to modified Cells: modified HEK293T Flp-in-HiBiT-IKZF1 stable cell line (polyclone) via a CRISPR/Cas9-mediated insertion of the HiBiT peptide tag (Promega™) to the N-terminus of the […] gene locus (Neon™ transfection system).
25 nL of diluted compound is transferred to assay plates (Corning3571) using ECHO550, the final DMSO concentration @ 0.1%. The cells are seeded in 3000/25 μL/well to compound plates. The plates are incubated for 6 hrs in TC incubator. The amount of Nano-Glo® HiBiT lytic reagent needed to perform the desired experiments is calculated. The Nano-Glo® HiBiT lytic reagent is brought to room temperature. The LgBiT protein is diluted to 1:100 and the Nano-Glo® HiBiT lytic substrate is brought to 1:50 into an appropriate volume of room temperature Nano-Glo® HiBiT lytic buffer. 15 μL of the detection reagent (or without LgBiT) is dispensed to corresponding well according to the layout. The plate is shaked for 10 mins at room temperature. After briefly centrifuge, the plateis read on Envision. At the indicated timepoints, the Nano-Glo® HiBiT lytic detection system (Promega™) was utilized for detecting bioluminescence of the HiBiT tag in treated cells: abundance of the tag is proportionate to the level of luminescence. Following normalization to DMSO, dose-response curves were plotted (GraphPad Prism) to determine the concentration points at which 50% of HiBiT-Ikaros degradation was achieved by each compound. The extent of degradation (range of luminescence) from the highest to lowest concentration points was calculated to determine the Dmax.
as §1

Chain of CRBN/DDB1 (Q96SW2 whole entry, species assumed): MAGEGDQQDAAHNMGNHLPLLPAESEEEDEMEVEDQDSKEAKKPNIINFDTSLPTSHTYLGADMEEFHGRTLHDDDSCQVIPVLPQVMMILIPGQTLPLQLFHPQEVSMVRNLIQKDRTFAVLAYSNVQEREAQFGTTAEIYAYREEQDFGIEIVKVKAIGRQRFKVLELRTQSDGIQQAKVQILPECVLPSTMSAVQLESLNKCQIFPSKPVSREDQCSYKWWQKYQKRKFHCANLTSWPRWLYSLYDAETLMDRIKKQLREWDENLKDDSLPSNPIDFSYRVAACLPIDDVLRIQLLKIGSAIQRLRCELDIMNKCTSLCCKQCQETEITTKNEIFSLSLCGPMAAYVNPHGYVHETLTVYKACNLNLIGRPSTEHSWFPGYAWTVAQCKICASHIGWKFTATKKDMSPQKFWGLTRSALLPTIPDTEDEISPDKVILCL
Chain of CRBN/DDB1 (Q16531 whole entry partner, species assumed): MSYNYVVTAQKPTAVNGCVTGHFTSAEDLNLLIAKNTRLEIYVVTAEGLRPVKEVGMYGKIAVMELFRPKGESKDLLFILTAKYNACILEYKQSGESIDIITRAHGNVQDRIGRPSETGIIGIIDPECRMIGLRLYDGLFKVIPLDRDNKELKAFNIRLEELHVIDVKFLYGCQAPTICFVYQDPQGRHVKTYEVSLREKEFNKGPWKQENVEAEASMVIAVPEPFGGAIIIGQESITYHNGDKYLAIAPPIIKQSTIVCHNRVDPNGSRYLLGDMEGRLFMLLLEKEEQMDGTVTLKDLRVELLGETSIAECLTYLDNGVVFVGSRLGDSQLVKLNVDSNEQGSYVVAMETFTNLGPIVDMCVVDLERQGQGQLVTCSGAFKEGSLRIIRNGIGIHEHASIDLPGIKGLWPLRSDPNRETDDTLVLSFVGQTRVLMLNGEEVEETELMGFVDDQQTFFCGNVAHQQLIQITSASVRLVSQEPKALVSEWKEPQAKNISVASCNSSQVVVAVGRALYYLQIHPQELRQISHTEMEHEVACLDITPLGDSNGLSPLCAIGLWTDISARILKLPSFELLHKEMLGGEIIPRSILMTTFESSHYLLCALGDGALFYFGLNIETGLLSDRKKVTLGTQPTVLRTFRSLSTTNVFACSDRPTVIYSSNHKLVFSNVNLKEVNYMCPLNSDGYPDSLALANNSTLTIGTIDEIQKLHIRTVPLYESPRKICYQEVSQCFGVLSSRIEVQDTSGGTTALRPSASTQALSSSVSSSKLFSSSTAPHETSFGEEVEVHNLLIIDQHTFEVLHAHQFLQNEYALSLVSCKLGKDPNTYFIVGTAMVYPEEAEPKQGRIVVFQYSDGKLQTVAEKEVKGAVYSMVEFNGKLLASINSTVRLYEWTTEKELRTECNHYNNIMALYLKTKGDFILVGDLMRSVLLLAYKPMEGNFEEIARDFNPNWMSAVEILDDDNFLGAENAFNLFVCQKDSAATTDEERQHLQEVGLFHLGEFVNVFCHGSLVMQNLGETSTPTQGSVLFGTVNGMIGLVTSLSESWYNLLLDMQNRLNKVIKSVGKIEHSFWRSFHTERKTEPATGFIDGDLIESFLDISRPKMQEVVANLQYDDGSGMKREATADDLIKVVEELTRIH
Chain of IKZF1 (Q13422 whole entry): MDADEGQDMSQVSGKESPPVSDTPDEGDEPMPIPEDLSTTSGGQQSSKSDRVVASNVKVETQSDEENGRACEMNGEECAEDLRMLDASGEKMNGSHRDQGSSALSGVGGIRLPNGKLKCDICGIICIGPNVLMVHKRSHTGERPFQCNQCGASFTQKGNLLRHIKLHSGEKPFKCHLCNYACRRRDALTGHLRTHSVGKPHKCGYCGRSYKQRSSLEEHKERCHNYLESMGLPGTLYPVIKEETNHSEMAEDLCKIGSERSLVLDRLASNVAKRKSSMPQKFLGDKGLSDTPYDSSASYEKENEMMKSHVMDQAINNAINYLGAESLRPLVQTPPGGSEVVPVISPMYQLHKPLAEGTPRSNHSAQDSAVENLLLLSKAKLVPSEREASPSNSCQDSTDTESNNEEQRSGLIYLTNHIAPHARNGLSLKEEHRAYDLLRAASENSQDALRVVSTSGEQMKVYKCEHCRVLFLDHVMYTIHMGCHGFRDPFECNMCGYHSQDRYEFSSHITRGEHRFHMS
Chain of IKZF1 (Q96SW2 whole entry): as the sequence (Q96SW2 whole entry, species assumed) above
Chain of IKZF1 (Q16531 2-1140 partner): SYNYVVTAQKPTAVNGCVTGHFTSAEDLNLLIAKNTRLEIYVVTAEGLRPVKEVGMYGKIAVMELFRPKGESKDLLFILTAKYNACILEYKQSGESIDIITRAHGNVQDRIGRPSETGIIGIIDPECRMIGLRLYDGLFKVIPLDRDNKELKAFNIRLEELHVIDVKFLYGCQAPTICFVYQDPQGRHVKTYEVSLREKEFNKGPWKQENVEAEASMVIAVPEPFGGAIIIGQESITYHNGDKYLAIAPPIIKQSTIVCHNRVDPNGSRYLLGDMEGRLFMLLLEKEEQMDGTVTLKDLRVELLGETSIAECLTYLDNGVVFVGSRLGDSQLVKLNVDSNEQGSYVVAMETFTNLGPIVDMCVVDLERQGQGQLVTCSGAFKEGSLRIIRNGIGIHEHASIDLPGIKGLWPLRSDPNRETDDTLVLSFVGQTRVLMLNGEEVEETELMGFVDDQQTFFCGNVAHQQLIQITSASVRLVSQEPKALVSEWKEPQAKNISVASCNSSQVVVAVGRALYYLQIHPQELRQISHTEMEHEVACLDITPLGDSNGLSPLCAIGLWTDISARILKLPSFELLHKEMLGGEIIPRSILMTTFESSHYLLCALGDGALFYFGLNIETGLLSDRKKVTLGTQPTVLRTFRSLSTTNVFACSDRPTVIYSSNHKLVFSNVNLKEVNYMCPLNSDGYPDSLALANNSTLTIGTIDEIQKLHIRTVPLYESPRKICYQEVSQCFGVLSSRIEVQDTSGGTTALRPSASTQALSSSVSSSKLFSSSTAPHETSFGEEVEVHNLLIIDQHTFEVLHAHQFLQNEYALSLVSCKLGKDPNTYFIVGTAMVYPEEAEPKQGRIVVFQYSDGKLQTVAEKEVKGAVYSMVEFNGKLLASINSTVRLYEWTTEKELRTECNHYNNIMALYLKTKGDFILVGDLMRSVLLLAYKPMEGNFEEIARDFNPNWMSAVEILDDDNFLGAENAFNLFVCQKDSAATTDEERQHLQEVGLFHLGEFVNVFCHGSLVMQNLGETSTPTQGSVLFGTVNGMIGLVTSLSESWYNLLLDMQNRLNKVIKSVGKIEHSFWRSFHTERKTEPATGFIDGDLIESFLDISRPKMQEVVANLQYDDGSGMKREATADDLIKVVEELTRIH
Chain of IKZF2 (Q9UKS7 whole entry): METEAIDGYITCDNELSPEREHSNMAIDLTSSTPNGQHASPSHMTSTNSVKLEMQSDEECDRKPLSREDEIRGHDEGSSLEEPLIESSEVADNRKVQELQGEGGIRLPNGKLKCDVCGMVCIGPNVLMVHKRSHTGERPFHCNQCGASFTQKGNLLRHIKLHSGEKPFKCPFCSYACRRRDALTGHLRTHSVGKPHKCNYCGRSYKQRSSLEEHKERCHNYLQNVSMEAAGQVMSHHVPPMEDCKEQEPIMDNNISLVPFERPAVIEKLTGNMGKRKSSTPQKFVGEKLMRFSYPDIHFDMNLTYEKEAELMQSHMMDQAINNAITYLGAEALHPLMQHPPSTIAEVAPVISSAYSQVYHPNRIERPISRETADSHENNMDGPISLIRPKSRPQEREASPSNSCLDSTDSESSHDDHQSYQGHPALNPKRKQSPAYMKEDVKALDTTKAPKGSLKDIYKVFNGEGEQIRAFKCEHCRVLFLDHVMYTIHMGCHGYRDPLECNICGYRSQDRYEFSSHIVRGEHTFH
Chain of IKZF2 (Q96SW2 whole entry): as the sequence (Q96SW2 whole entry, species assumed) above
Chain of IKZF2 (Q16531 2-1140 partner): as the sequence (Q16531 2-1140 partner) above

Compound	IC50 (CRBN/DDB1) [nM]	DC50 (IKZF2) [nM]	Dmax (IKZF2) [%]	DC50 (IKZF1) [nM]	Dmax (IKZF1) [%]
O=C1CCC(N2Cc3cc(-c4cc(CN5CCCC5)cc5cncn45)cc(F)c3C2=O)C(=O)N1 (centres unmarked) [Example 28, 3-(7-fluoro-1-oxo-5-(7-(pyrrolidin-1-ylmethyl)imidazo[1,5-a]pyridin-5-yl)isoindolin-2-yl) piperidine-2,6-dione]	500 to 1000	–	–	–	–
O=C1CCC(N2Cc3cc(-c4cc(CN5CCCC5)cc5cncn45)c(F)cc3C2=O)C(=O)N1 (centres unmarked) [Example 29, 3-(6-fluoro-1-oxo-5-(7-(pyrrolidin-1-ylmethyl)imidazo[1,5-a]pyridin-5-yl)isoindolin-2-yl) piperidine-2,6-dione]	1000 to 5000	–	–	–	–
COc1cc2c(cc1-c1cc(CN3CCCC3)cc3cncn13)CN(C1CCC(=O)NC1=O)C2=O (centres unmarked) [Example 30, 3-(6-methoxy-1-oxo-5-(7-(pyrrolidin-1-ylmethyl)imidazo[1,5-a]pyridin-5-yl)isoindolin-2-yl) piperidine-2,6-dione]	1000 to 5000	1000 to 10000	< 20	> 10000	< 20
COc1cc(-c2cc(CN3CCCC3)cc3cncn23)cc2c1C(=O)N(C1CCC(=O)NC1=O)C2 (centres unmarked) [Example 32, 3-(7-methoxy-1-oxo-5-(7-(pyrrolidin-1-ylmethyl)imidazo[1,5-a]pyridin-5-yl)isoindolin-2-yl) piperidine-2,6-dione]	100 to 500	–	–	–	–
O=C1CCC(N2Cc3cc(-c4cc(CN5CCCC5c5ccccc5)cc5nncn45)ccc3C2=O)C(=O)N1 (centres unmarked) [Example 50, 3-(1-oxo-5-(7-((2-phenylpyrrolidin-1-yl)methyl)-[1,2,4]triazolo[4,3-a]pyridin-5-yl)isoindolin-2-yl) piperidine-2,6-dione]	1000 to 5000	–	–	–	–
Cn1ccc2c(CN3CCCCC3)cc(-c3ccc4c(c3)CN(C3CCC(=O)NC3=O)C4=O)nc21 (centres unmarked) [Example 57, 3-(5-(1-methyl-4-(piperidin-1-ylmethyl)-1H-pyrrolo[2,3-b]pyridin-6-yl)-1-oxoisoindolin-2-yl) piperidine-2,6-dione]	100 to 500	< 1	> 80	> 10000	20 to 40
Cn1ccc2c(CN3CCOCC3)cc(-c3ccc4c(c3)CN(C3CCC(=O)NC3=O)C4=O)nc21 (centres unmarked) [Example 58, 3-(5-(1-methyl-4-(morpholinomethyl)-1H-pyrrolo[2,3-b]pyridin-6-yl)-1-oxoisoindolin-2-yl) piperidine-2,6-dione]	500 to 1000	1 to 10	60 to 80	> 10000	< 20
O=C1CCC(N2Cc3cc(-c4cc(CN5CCCC5)c5cc[nH]c5n4)ccc3C2=O)C(=O)N1 (centres unmarked) [Example 59, 3-(1-oxo-5-(4-(pyrrolidin-1-ylmethyl)-1H-pyrrolo[2,3-b]pyridin-6-yl)isoindolin-2-yl) piperidine-2,6-dione]	100 to 500	1 to 10	> 80	> 10000	20 to 40
Cn1ccc2c(CN3CCC(F)(F)CC3)cc(-c3ccc4c(c3)CN(C3CCC(=O)NC3=O)C4=O)nc21 (centres unmarked) [Example 60, 3-(5-(4-((4,4-difluoropiperidin-1-yl)methyl)-1-methyl-1H-pyrrolo[2,3-b]pyridin-6-yl)-1-oxoisoindolin-2-yl) piperidine-2,6-dione]	500 to 1000	1 to 10	60 to 80	> 10000	< 20
Cn1ccc2c(CN3CCN(S(C)(=O)=O)CC3)cc(-c3ccc4c(c3)CN(C3CCC(=O)NC3=O)C4=O)nc21 (centres unmarked) [Example 61, 3-(5-(1-methyl-4-((4-(methylsulfonyl)piperazin-1-yl)methyl)-1H-pyrrolo[2,3-b]pyridin-6-yl)-1-oxoisoindolin-2-yl) piperidine-2,6-dione]	500 to 1000	10 to 100	40 to 60	> 10000	< 20
Cn1ccc2c(CN3CCSCC3)cc(-c3ccc4c(c3)CN(C3CCC(=O)NC3=O)C4=O)nc21 (centres unmarked) [Example 62, 3-(5-(1-methyl-4-(thiomorpholinomethyl)-1H-pyrrolo[2,3-b]pyridin-6-yl)-1-oxoisoindolin-2-yl) piperidine-2,6-dione]	100 to 500	1 to 10	> 80	> 10000	< 20
Cn1ccc2c(CN3CC4COCC4C3)cc(-c3ccc4c(c3)CN(C3CCC(=O)NC3=O)C4=O)nc21 (centres unmarked) [Example 63, 3-(5-(1-methyl-4-((tetrahydro-1H-furo[3,4-c]pyrrol-5 (3H)-yl)methyl)-1H-pyrrolo[2,3-b]pyridin-6-yl)-1-oxoisoindolin-2-yl) piperidine-2,6-dione]	100 to 500	< 1	> 80	> 10000	20 to 40
CNc1[nH]nc2c(CN3CCCC3)cc(-c3ccc4c(c3F)CN(C3CCC(=O)NC3=O)C4=O)nc12 (centres unmarked) [Example 296, 3-(4-fluoro-5-(3-(methylamino)-7-(pyrrolidin-1-ylmethyl)-1H-pyrazolo[4,3-b]pyridin-5-yl)-1-oxoisoindolin-2-yl) piperidine-2,6-dione]	–	< 1	> 80	1 to 10	60 to 80
CS(=O)(=O)Nc1n[nH]c2c(CN3CCCC3)cc(-c3ccc4c(c3F)CN(C3CCC(=O)NC3=O)C4=O)nc12 (centres unmarked) [Example 297, N-(5-(2-(2,6-dioxopiperidin-3-yl)-4-fluoro-1-oxoisoindolin-5-yl)-7-(pyrrolidin-1-ylmethyl)-1H-pyrazolo[4,3-b]pyridin-3-yl) methanesulfonamide]	–	> 10000	< 20	> 10000	< 20
CC(C)Nc1n[nH]c2c(CN3CCCC3)cc(-c3ccc4c(c3)CN(C35CC(C3)C(=O)NC5=O)C4=O)nc12 [Example 298, 1-(5-(3-(isopropylamino)-7-(pyrrolidin-1-ylmethyl)-1H-pyrazolo[4,3-b]pyridin-5-yl)-1-oxoisoindolin-2-yl)-3-azabicyclo[3.1.1]heptane-2,4-dione]	–	< 1	20 to 40	> 10000	< 20
